From patent US20220362232A1, “TOPICAL COMPOSITIONS COMPRISING A MACROLIDE IMMUNOSUPPRESSANT” (BAUSCH HEALTH IRELAND LIMITED, priority 2020, published 2022)

Columns and labels:
[1] = cited from earlier work
[2] = Solubility and stability in alkyl diesters of aliphatic dicarboxylic acids; assay type: physicochemical

Row | Compound | Solubility in benzyl alcohol, chloroform, acetone, and acetonitrile [1] | Solubility in water [1] | Solubility and stability in alkyl diesters of aliphatic dicarboxylic acids [2] | Solubility in methanol and ethanol ([1]; methanol and ethanol)
1 | CO[C@H]1C[C@@H]2CC[C@@H](C)[C@@](O)(O2)C(=O)C(=O)N2CCCC[C@H]2C(=O)O[C@H]([C@H](C)C[C@@H]2CC[C@@H](O)[C@H](OC)C2)CC(=O)[C@H](C)/C=C(\C)[C@@H](O)[C@@H](OC)C(=O)[C@H](C)C[C@H](C)/C=C/C=C/C=C/1C [Sirolimus] | soluble | insoluble | particularly soluble and stable | 
2 | CC[C@@H]1/C=C(\C)C[C@H](C)C[C@H](OC)[C@H]2O[C@@](O)(C(=O)C(=O)N3CCCC[C@H]3C(=O)O[C@H](/C(C)=C/[C@@H]3CC[C@H](Cl)[C@H](OC)C3)[C@H](C)[C@@H](O)CC1=O)[C@H](C)C[C@@H]2OC [Pimecrolimus] |  | insoluble | particularly soluble and stable | soluble
3 | C=CC[C@@H]1/C=C(\C)C[C@H](C)C[C@H](OC)[C@H]2O[C@@](O)(C(=O)C(=O)N3CCCC[C@H]3C(=O)O[C@H](/C(C)=C/[C@@H]3CC[C@@H](O)[C@H](OC)C3)[C@H](C)[C@@H](O)CC1=O)[C@H](C)C[C@@H]2OC [Tacrolimus] | soluble | insoluble | particularly soluble and stable | 
